Assay results taken from publication PMC8752738, “A propolis-derived small molecule ameliorates metabolic syndrome in obese mice by targeting the CREB/CRTC2 transcriptional complex” (Nature Communications, 2022).
Values joined by “and” are separate entries in the source; they are usually repeats but may differ in a detail not shown here. Equal values may be shown once.

How the values were obtained:
[1] = target: T1, CREB / CRTC3 interaction (Homo sapiens, UniProt P16220); test: Co-immunoprecipitation of GFP-CRTC3 by MYC-CREB, HEK293T; format: cell-based; conditions: overexpression HEK293T cells, APC 10 μM
T1 construct: expressed in transfected cells; host or cells: HEK293T
T1 sequence (P16220 whole entry): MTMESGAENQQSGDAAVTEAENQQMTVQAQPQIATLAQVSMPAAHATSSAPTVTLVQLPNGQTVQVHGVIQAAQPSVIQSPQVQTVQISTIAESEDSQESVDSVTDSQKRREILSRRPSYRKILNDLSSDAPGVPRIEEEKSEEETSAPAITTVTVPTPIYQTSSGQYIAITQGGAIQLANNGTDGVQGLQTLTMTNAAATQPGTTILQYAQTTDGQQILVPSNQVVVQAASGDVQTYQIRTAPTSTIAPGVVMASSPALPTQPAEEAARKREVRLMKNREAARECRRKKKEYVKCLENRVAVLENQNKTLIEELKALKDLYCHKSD
Method: 1 Supplementary Figure 2.
2 a) Immunoblot of HA-P300 recovered from HEK293T cell lysate using GST-CREB beads. APC
3 (10 μM) was incubated with cells for 1-h before FKS (10 nM) stimulation and was included in the
4 following pull-down mixtures (n=3). One of two independent experiments presented here.
5 b) Immunoblot for recovered GFP-CRTC1 or (c) GFP-CRTC3 immunoprecipitated by MYC-CREB
6 from overexpression HEK293T cell line. APC (10 μM) was incubated with cells for 1-h before FKS
7 (10 nM) stimulation and was included in the following pull-down mixtures. One of two independent
8 experiments presented here.
9 d) SPR sonogram traces of APC binding with HIS-CREB proteins immobilized to NTA-chip. The
10 concentration series of APC was as indicated.
11 e) SPR sonogram traces of APC flowing through HIS-CRTC2-S171A proteins immobilized on
12 NTA-chip. The concentration of APC was as indicated.
13 f) The luciferase enzymatic activity of HEK293T incubated with APC. Cells over-expressed
14 luciferase CRE-Luc reporter and were stimulated by FSK (10 nM) for 5-h before lysis, which was
15 then incubated with APC (concentration indicated) for 30 min before luciferase activity determination
16 (n=3 per treatment). Data are represented as mean ± SEM. *, p < 0.05; **, p < 0.01; p values were
17 determined by one-way ANOVA followed Dunnett’s multiple comparisons test. […]

[2] = tested on: AMPK; test: Phospho-AMPK immunoblot in primary hepatocytes; format: cell-based, mouse; conditions: for relative p-AMPK protein, mean: N=3 (0 μM = 1); for relative p-AMPK protein: Supp. fig.3e, individual replicates
Method: (§1) Immunoblotting and immunoprecipitation assays were performed as previously described, with antibodies recognizing CREB, Ser133-P-CREB, AMPK, P-AMPK, AKT, P-AKT (Cell Signaling), PGC-1α (Merck), CRTC2 (Calbiochem), PCK1 (Santa Cruz), SREBP1 (Santa Cruz), SREBP2 (BD), HA (Convance), LXRα (Santa Cruz), FLAG (Sigma), GST (Covance), HIS (Abmart), GAPDH (AOGMA), α-TUBULIN (Abmart), β-ACTIN (Abmart), and other antibodies (Supplementary Table 3). For immunostaining assays, primary cultured hepatocytes seeded on coverslips were fixed with 4% paraformaldehyde for 20 min, permeabilized with 0.3% Triton X-100 in PBS, and then blocked by 5% normal goat serum and 0.3% Triton X-100 in PBS, followed by incubation with anti-CREB (1:1000), anti-P-CREB (1:1000), or anti-HA (1:3000) antibodies for 1 h at 4 °C. Slides were then washed, and after washing, slides were incubated with fluorochrome-conjugated secondary antibodies (Invitrogen). Slides were then washed and mounted with Vectashield mounting media containing 4, 6-diamidino-2-phenylindole (DAPI).
1 Supplementary Figure 3. APC inhibits gluconeogenesis independent of CREB-phosphorylation,
2 cell toxin or AMPK activation. […]
20 e) Phosphate-AMPK level in primary hepatocytes incubated with APC or metformin (MET) at
21 indicated concentrations (0–200 μM) for 30 minutes (top). Relative P-AMPK normalized by AMPK is […]

[3] = tested on: tissue protein levels; test: Immunoblotting of tissue proteins in treated mice; format: in vivo, mouse; conditions: for Relative LXRa/ACTIN, Mean Diff. (VEH vs. treated) / Relative LXRa/ACTIN, Mean 2 (group mean) / Relative LXRa/ACTIN: Figure 7h; for Relative LXRa/ACTIN, Mean 2 (group mean): N2 = 4; for Relative LXRa/ACTIN: single replicates
Method: as §1

[4] = tested on: FGF21; test: Immunoblotting of plasma and liver FGF21; format: in vivo, mouse
Method: 1 Supplementary Figure 10. A57 is novel inhibitor of the CREB/CRTC2 protein complex. […]
20 e) Immunoblotting of plasma and liver FGF21 protein in Crtc2KO mice, which induced by a high
21 fat diet for 13 weeks then orally administered APC (20 mg/kg), A57 (20 mg/kg) or vehicle (VEH) for
1 3 weeks. Two technological repeats present a composite pool including 5 mice per group. One
2 representative result from three-independent experiments is shown here.
3 f) Relative plasma FGF21 (top) and liver FGF21 (bottom), normalized by R250 signaling or
4 ACTIN respectively, is shown here as a bar graph. Data are represented as mean ± SEM (n=5 per
5 group, two technological repeats present a composite pool). ns, p > 0.05; *, p < 0.05; **, p < 0.01; p
7 for this figure are provided as a Source data file.

[5] = 200 μM (first of two lines printed 200)
[6] = 200 μM (second of two lines printed 200)
[7] = Figure 6b right, N=4, VEH mean 1
[8] = Figure 6b right, individual animals, relative to VEH
[9] = Figure 8c, relative protein in DIO liver, individual samples
[10] = db/db mice, liver, group mean, N=3, VEH mean 1
[11] = db/db mice, liver, individual mouse
[12] = liver of DIO mice, individual samples, n=3
[13] = liver, CRTC2KO mice, drug minus VEH
[14] = liver, WT mice, group mean, N=4

Q: Which “interaction of CREB and CRTC3” value [1] does the source give for `CC(C)=CCc1cc(C=CC(=O)O)cc(CC=C(C)C)c1O` [APC, 3,5-diprenyl-4-hydroxycinnamic acid] here?
A: attenuated

Q: And the “relative p-AMPK protein, mean” value ([2]; 5 μM)?
A: 0.9451

Q: What about the “relative p-AMPK protein, mean” value ([2]; 10 μM) of the same compound?
A: 0.8939

Q: And the “relative p-AMPK protein, mean” value ([2]; 100 μM)?
A: 0.906

Q: What about the “relative p-AMPK protein, mean” value [2, 5] of the same compound?
A: 0.9865

Q: And the “relative p-AMPK protein, mean” value [2, 6]?
A: 1.094

Q: What about the “relative p-AMPK protein” value ([2]; 5 μM) of the same compound?
A: 1.019 and 0.9566 and 0.8598

Q: And the “relative p-AMPK protein” value ([2]; 10 μM)?
A: 0.8723 and 0.8495 and 0.96

Q: What about the “relative p-AMPK protein” value ([2]; 100 μM) of the same compound?
A: 0.9495 and 0.9349 and 0.8336

Q: And the “relative p-AMPK protein” value [2, 5]?
A: 0.9904 and 0.9893 and 0.9798

Q: And the “relative p-AMPK protein” value [2, 6]?
A: 1.017 and 1.161 and 1.105

Q: What about the “relative p-AMPK protein, column mean” value ([2]; mean over all concentrations, 0 μM included) of the same compound?
A: 0.971

Q: And the “phosphorylation of AMPK” value ([2]; primary hepatocytes, up to 200 μM)?
A: did not induce phosphorylation of AMPK

Q: What about the “hepatic protein levels of PCK1 and PGC-1α” value ([3]; DIO and db/db mice) of the same compound?
A: decreased

Q: And the “accumulation of mature SREBP proteins in the liver” value ([3]; DIO mice)?
A: reducing

Q: And the “protein levels of LXRα and SREBP1 in the liver” value ([3]; DIO mice)?
A: decreased

Q: And the “SREBP1/GAPDH, Predicted (LS) mean” value [3, 7]?
A: 0.3097

Q: And the “SREBP2/GAPDH, Predicted (LS) mean” value [3, 7]?
A: 0.1841

Q: What about the “Relative SREBP1/2 protein levels: SREBP1/GAPDH” value [3, 8] of the same compound?
A: 0.2289 and 0.468 and 0.339 and 0.2027

Q: And the “Relative SREBP1/2 protein levels: SREBP2/GAPDH” value [3, 8]?
A: 0.3721 and 0.1919 and 0.1184 and 0.05422

Q: And the “PGC1a/GAPDH density, mean” value ([3]; Figure 8c, DIO liver, group mean, N=3, Ctrl mean 1)?
A: 0.5994

Q: What about the “PCK1/GAPDH density, mean” value ([3]; Figure 8c, DIO liver, group mean, N=3, Ctrl mean 1.007) of the same compound?
A: 0.6998

Q: What about the “Relative PGC1a/GAPDH density” value [3, 9] of the same compound?
A: 0.6916 and 0.563 and 0.5437

Q: And the “relative PCK1/GAPDH density” value [3, 9]?
A: 0.6644 and 0.7152 and 0.7198

Q: And the “Relative LXRa/ACTIN, Mean Diff. (VEH vs. treated)” value ([3]; CRTC2KO)?
A: 0.1178

Q: And the “Relative LXRa/ACTIN, Mean 2 (group mean)” value ([3]; CRTC2KO)?
A: 0.6864

Q: What about the “Relative LXRa/ACTIN” value ([3]; CT2KO) of the same compound?
A: 0.6612 and 0.7951 and 0.6751 and 0.6141

Q: And the “Relative LXRa/ACTIN, Mean Diff. (VEH vs. treated)” value ([3]; WT)?
A: 0.3705

Q: And the “Relative LXRa/ACTIN, Mean 2 (group mean)” value ([3]; WT)?
A: 0.525

Q: What about the “Relative LXRa/ACTIN” value ([3]; WT) of the same compound?
A: 0.572 and 0.5732 and 0.4815 and 0.4734

Q: What about the “Relative PCK1/TUBLIN in db/db liver, mean” value [3, 10] of the same compound?
A: 0.4585 folds

Q: What about the “Relative PGC1a/TUBLIN in db/db liver, mean” value [3, 10] of the same compound?
A: 0.2953 folds

Q: And the “Relative proteins in the liver of db/db mice, PCK1/TUBLIN” value [3, 11]?
A: 0.5197 folds and 0.4980 folds and 0.3577 folds

Q: What about the “Relative proteins in the liver of db/db mice, PGC1a/TUBLIN” value [3, 11] of the same compound?
A: 0.2725 folds and 0.3156 folds and 0.2979 folds

Q: What about the “relative protein levels in liver of DIO: LXRa/GAPDH” value [3, 12] of the same compound?
A: 0.741 and 0.777 and 0.8147

Q: What about the “relative protein levels in liver of DIO: PPARa/GAPDH” value [3, 12] of the same compound?
A: 0.924 and 0.9 and 0.98

Q: What about the “relative protein levels in liver of DIO: SREBP1/GAPDH” value [3, 12] of the same compound?
A: 0.391 and 0.515 and 0.283

Q: What about the “relative protein levels in liver of DIO: LXRa, group mean (Mean 1)” value ([3]; liver of DIO mice, mean of N=3) of the same compound?
A: 0.7776

Q: And the “relative protein levels in liver of DIO: PPARa, group mean (Mean 1)” value ([3]; liver of DIO mice, mean of N=3)?
A: 0.9347

Q: What about the “relative protein levels in liver of DIO: SREBP1, group mean (Mean 1)” value ([3]; liver of DIO mice, mean of N=3) of the same compound?
A: 0.3963

Q: And the “SREBP1/ACT IN CT2KO, Mean Diff. vs. VEH” value [3, 13]?
A: -0.1371

Q: And the “SREBP2/ACT IN CT2KO, Mean Diff. vs. VEH” value [3, 13]?
A: -0.0958

Q: And the “SREBP1/ACT IN CT2KO, mean” value ([3]; liver, CRTC2KO mice, group mean, N=4)?
A: 0.5503

Q: And the “SREBP1/ACT IN CT2KO (related SREBP1 protein levels in CRTC2KO liver)” value ([3]; liver, CRTC2KO mice, individual replicates, Supp.fig.5a left)?
A: 0.5592 and 0.5689 and 0.5793 and 0.4937

Q: What about the “SREBP2/ACT IN CT2KO (related SREBP2 protein levels in CRTC2KO liver)” value ([3]; liver, CRTC2KO mice, individual replicates, Supp.fig.5a right) of the same compound?
A: 0.6411 and 0.5673 and 0.6822 and 0.6938

Q: What about the “SREBP1/ACT IN WT, Mean Diff. vs. VEH” value ([3]; liver, WT mice, drug minus VEH) of the same compound?
A: -0.2945

Q: What about the “SREBP2/ACT IN WT, Mean Diff. vs. VEH” value ([3]; liver, WT mice, drug minus VEH) of the same compound?
A: -0.4593

Q: What about the “SREBP1/ACT IN WT, mean” value [3, 14] of the same compound?
A: 0.6687

Q: What about the “SREBP2/ACT IN WT, mean” value [3, 14] of the same compound?
A: 0.5653

Q: And the “SREBP1/ACT IN WT (related SREBP1 protein levels in liver)” value ([3]; liver, WT mice, individual replicates, Supp.fig.5a left)?
A: 0.6865 and 0.5728 and 0.728 and 0.6877

Q: What about the “SREBP2/ACT IN WT (related SREBP2 protein levels in liver)” value ([3]; liver, WT mice, individual replicates, Supp.fig.5a right) of the same compound?
A: 0.6071 and 0.5991 and 0.5115 and 0.5437

Q: And the “phosphorylated AKT in liver, muscle, brown and white adipose tissues” value ([3]; treated obese mice)?
A: enhanced

Q: What about the “plasma and liver FGF21” value ([4]; Crtc2KO mice, oral 20 mg/kg, 3 weeks) of the same compound?
A: did not further increase

Q: And the “liver FGF21 in CRTC2, group mean (Mean 2)” value ([4]; Supp. Fig.10 f down, CRTC2KO mice, n=3, VEH mean 2.47)?
A: 2.579

Q: What about the “Bands density of FGF21 in the liver” value ([4]; Supp. Fig.10 f down, CT2KO (CRTC2KO) mice, oral, individual replicates, Veh about 2.47) of the same compound?
A: 2.47 and 2.45 and 2.816

Q: And the “Bands density, plasma FGF21 in CRTC2” value ([4]; Supp. Fig.10 f up, CRTC2KO mice, individual replicates, VEH about 2.31)?
A: 2.4404 and 2.52 and 2.451

Q: What about the “Bands density, plasma FGF21 in CRTC2, group mean (Mean 2)” value ([4]; Supp. Fig.10 f up, CRTC2KO mice, n=3, VEH mean 2.31) of the same compound?
A: 2.47
